In article PMC6230509 (Neuropharmacology, 2018):

Columns and labels:
[1] = target: norepinephrine transporter (NET) (Homo sapiens, UniProt P23975); experiment: NIMH PDSP radioligand competition binding, NET
H1 = H1 (Homo sapiens, UniProt P35367); experiment: NIMH PDSP radioligand competition binding, H1
α1A = target: T1, α1A (Homo sapiens, UniProt P35348); experiment: NIMH PDSP radioligand competition binding, α1A
T1 sequence (P35348 1-466): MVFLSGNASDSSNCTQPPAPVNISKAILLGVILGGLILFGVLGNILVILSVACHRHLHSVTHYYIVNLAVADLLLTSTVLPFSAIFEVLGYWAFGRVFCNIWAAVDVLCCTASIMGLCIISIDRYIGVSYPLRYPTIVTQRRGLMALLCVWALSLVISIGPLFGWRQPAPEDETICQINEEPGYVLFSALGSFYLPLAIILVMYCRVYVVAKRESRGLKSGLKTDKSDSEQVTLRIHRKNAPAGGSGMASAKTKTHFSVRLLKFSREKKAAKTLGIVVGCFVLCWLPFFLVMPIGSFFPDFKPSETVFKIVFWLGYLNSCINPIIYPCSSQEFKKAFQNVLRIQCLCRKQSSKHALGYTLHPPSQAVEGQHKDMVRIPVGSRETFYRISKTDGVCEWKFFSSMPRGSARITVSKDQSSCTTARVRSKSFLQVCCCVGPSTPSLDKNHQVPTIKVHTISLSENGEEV

norepinephrine transporter (NET), sequence (P23975 whole entry): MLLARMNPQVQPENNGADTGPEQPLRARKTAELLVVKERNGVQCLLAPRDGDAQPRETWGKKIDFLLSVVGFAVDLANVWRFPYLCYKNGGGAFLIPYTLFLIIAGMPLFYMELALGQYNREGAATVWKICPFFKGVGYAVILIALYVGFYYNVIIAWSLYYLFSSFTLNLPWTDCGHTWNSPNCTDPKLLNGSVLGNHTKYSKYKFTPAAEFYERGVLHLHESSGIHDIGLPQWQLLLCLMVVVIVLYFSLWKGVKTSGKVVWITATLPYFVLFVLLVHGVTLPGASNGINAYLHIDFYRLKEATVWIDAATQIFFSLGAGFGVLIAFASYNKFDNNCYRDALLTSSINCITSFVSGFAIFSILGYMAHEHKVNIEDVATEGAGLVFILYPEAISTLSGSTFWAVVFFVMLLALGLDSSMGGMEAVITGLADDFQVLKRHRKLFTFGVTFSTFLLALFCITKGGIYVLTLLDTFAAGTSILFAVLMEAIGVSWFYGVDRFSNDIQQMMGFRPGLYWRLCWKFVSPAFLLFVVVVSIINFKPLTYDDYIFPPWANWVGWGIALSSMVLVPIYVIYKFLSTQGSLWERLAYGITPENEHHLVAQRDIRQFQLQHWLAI
H1, sequence (P35367 whole entry): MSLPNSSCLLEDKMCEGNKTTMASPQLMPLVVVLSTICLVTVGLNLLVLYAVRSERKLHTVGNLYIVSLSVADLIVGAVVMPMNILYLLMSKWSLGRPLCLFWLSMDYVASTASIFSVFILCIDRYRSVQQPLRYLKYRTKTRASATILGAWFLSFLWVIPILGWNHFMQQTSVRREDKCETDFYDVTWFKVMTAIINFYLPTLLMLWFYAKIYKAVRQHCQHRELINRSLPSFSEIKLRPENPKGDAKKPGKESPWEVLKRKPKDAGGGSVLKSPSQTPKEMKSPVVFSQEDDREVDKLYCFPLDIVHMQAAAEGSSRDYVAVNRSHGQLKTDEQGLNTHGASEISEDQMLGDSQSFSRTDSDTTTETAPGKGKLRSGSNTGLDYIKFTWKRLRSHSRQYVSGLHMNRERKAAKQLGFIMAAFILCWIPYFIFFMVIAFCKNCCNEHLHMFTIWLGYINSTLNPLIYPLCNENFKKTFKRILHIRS

| Compound | Ki [1] [nM] | Ki (H1) [nM] | Ki (α1A) [nM] |
| --- | --- | --- | --- |
| C=CCN(CC=C)CCc1c(C)[nH]c2ccc(F)cc12 [5-F-2-Me-DALT, 5-fluoro-2-methyl-N,N-diallyltryptamine] | > 10000 | 435 | 1570 |
| C=CCN(CC=C)CCc1c[nH]c2c(CC)cccc12 [7-Et-DALT, 7-ethyl-N,N-diallyltryptamine] | 1880 | 913 | > 10000 |
| C=CCN(CC=C)CCc1c(C)[nH]c2ccc(OC)cc12 [5-MeO-2-Me-DALT, 5-methoxy-2-methyl-N,N-diallyltryptamine] | > 10000 | 847 | 1200 |
| C=CCN(CC=C)CCc1c[nH]c2cccc(O)c12 [4-HO-DALT, 4-hydroxy-N,N-diallyltryptamine] | > 10000 | > 10000 | > 10000 |
| C=CCN(CC=C)CCc1c[nH]c2cccc(OC(C)=O)c12 [4-AcO-DALT, 4-acetoxy-N,N-diallyltryptamine] | > 10000 | 353 | > 10000 |
| C=CCN(CC=C)CCc1c(-c2ccccc2)[nH]c2ccccc12 [2-Ph-DALT, 2-phenyl-N,N-diallyltryptamine] | 420 | 79 | 75 |
